From ChEMBL document CHEMBL1128537, “The squalestatins: synthesis and biological activity of some C3-modified analogues; replacement of a carboxylic acid or methyl ester with an isoelectronic heterocyclic functionality” (J Med Chem, 1995)

Target: T1, Squalene synthase (Rattus norvegicus, UniProt Q02769)
T1 sequence (Q02769 whole entry): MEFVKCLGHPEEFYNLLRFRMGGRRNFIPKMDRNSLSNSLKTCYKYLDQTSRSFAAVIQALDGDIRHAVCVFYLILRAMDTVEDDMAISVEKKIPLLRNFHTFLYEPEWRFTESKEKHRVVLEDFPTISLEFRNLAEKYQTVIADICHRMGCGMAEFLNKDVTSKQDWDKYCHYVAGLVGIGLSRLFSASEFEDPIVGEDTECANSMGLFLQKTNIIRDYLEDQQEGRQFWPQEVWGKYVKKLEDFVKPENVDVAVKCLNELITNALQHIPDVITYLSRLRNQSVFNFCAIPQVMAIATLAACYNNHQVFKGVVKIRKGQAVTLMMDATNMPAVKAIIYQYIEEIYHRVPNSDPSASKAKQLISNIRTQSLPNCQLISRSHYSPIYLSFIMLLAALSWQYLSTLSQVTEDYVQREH
Assay: In vitro for inhibitory activity against Squalene synthase in rat

Structure (SMILES) | IC50 [nM]
C=C(CC[C@]12O[C@H](c3nnc(S)n3C)[C@@](O)(C(=O)O)[C@](C(=O)O)(O1)[C@H](OC(=O)/C=C/[C@@H](C)C[C@@H](C)CC)[C@H]2O)[C@@H](C(C)=O)[C@H](C)Cc1ccccc1 | 172
C=C(CC[C@]12O[C@H](c3nc(C)no3)[C@@](O)(C(=O)O)[C@](C(=O)O)(O1)[C@H](O)[C@H]2O)[C@@H](C(C)=O)[C@H](C)Cc1ccccc1 | 310
C=C(CC[C@]12O[C@H](c3cscn3)[C@@](O)(C(=O)O)[C@](C(=O)O)(O1)[C@H](OC(=O)/C=C/[C@@H](C)C[C@@H](C)CC)[C@H]2O)[C@@H](C(C)=O)[C@H](C)Cc1ccccc1 | 92
C=C(CC[C@]12O[C@H](c3csc(C)n3)[C@@](O)(C(=O)O)[C@](C(=O)O)(O1)[C@H](OC(=O)/C=C/[C@@H](C)C[C@@H](C)CC)[C@H]2O)[C@@H](C(C)=O)[C@H](C)Cc1ccccc1 | 357
C=C(CC[C@]12O[C@H](c3cnc[nH]3)[C@@](O)(C(=O)O)[C@](C(=O)O)(O1)[C@H](O)[C@H]2O)[C@@H](C(C)=O)[C@H](C)Cc1ccccc1 | 785
C=C(CC[C@]12O[C@H](C(=O)OC)[C@@](O)(C(=O)O)[C@](C(=O)O)(O1)[C@H](OC(=O)/C=C/[C@@H](C)C[C@@H](C)CC)[C@H]2O)[C@@H](C(C)=O)[C@H](C)Cc1ccccc1 | 7
C=C(CC[C@]12O[C@H](c3nnc(NC)o3)[C@@](O)(C(=O)O)[C@](C(=O)O)(O1)[C@H](OC(=O)/C=C/[C@@H](C)C[C@@H](C)CC)[C@H]2O)[C@@H](C(C)=O)[C@H](C)Cc1ccccc1 | 10
C=C(CC[C@]12O[C@H](c3n[nH]c(=S)n3C)[C@@](O)(C(=O)O)[C@](C(=O)O)(O1)[C@H](O)[C@H]2O)[C@@H](C(C)=O)[C@H](C)Cc1ccccc1 | 1940
C=C(CC[C@]12O[C@H](c3nnnn3C)[C@@](O)(C(=O)O)[C@](C(=O)O)(O1)[C@H](O)[C@H]2O)[C@@H](C(C)=O)[C@H](C)Cc1ccccc1 | 442
C=C(CC[C@]12O[C@H](c3nnc(C)[nH]3)[C@@](O)(C(=O)O)[C@](C(=O)O)(O1)[C@H](O)[C@H]2O)[C@@H](C(C)=O)[C@H](C)Cc1ccccc1 | 312
C=C(CC[C@]12O[C@H](c3csc(C)n3)[C@@](O)(C(=O)O)[C@](C(=O)O)(O1)[C@H](O)[C@H]2O)[C@@H](C(C)=O)[C@H](C)Cc1ccccc1 | 2880

More lines, in order of falling IC50, values ahead:

IC50 [nM] | Structure (SMILES)
1180 | C=C(CC[C@]12O[C@H](c3csc(NC)n3)[C@@](O)(C(=O)O)[C@](C(=O)O)(O1)[C@H](O)[C@H]2O)[C@@H](C(C)=O)[C@H](C)Cc1ccccc1
505 | C=C(CC[C@]12O[C@H](c3cscn3)[C@@](O)(C(=O)O)[C@](C(=O)O)(O1)[C@H](O)[C@H]2O)[C@@H](C(C)=O)[C@H](C)Cc1ccccc1
220 | C=C(CC[C@]12O[C@H](C(=O)OC)[C@@](O)(C(=O)O)[C@](C(=O)O)(O1)[C@H](O)[C@H]2O)[C@@H](C(C)=O)[C@H](C)Cc1ccccc1
156 | C=C(CC[C@]12O[C@H](c3nnn(C)n3)[C@@](O)(C(=O)O)[C@](C(=O)O)(O1)[C@H](O)[C@H]2O)[C@@H](C(C)=O)[C@H](C)Cc1ccccc1
147 | C=C(CC[C@]12O[C@H](c3nnc(NC)o3)[C@@](O)(C(=O)O)[C@](C(=O)O)(O1)[C@H](O)[C@H]2O)[C@@H](C(C)=O)[C@H](C)Cc1ccccc1
146 | C=C(CC[C@]12O[C@H](c3csc(NC)n3)[C@@](O)(C(=O)O)[C@](C(=O)O)(O1)[C@H](OC(=O)/C=C/[C@@H](C)C[C@@H](C)CC)[C@H]2O)[C@@H](C(C)=O)[C@H](C)Cc1ccccc1
72 | C=C(CC[C@]12O[C@H](c3nc(C)no3)[C@@](O)(C(=O)O)[C@](C(=O)O)(O1)[C@H](OC(=O)/C=C/[C@@H](C)C[C@@H](C)CC)[C@H]2O)[C@@H](C(C)=O)[C@H](C)Cc1ccccc1
63 | C=C(CC[C@]12O[C@H](c3csc(N)n3)[C@@](O)(C(=O)O)[C@](C(=O)O)(O1)[C@H](OC(=O)/C=C/[C@@H](C)C[C@@H](C)CC)[C@H]2O)[C@@H](C(C)=O)[C@H](C)Cc1ccccc1
57 | C=C(CC[C@]12O[C@H](c3nnnn3C)[C@@](O)(C(=O)O)[C@](C(=O)O)(O1)[C@H](OC(=O)/C=C/[C@@H](C)C[C@@H](C)CC)[C@H]2O)[C@@H](C(C)=O)[C@H](C)Cc1ccccc1
43 | C=C(CC[C@]12O[C@H](c3nnn(C)n3)[C@@](O)(C(=O)O)[C@](C(=O)O)(O1)[C@H](OC(=O)/C=C/[C@@H](C)C[C@@H](C)CC)[C@H]2O)[C@@H](C(C)=O)[C@H](C)Cc1ccccc1
25 | C=C(CC[C@]12O[C@H](c3nnn[nH]3)[C@@](O)(C(=O)O)[C@](C(=O)O)(O1)[C@H](O)[C@H]2O)[C@@H](C(C)=O)[C@H](C)Cc1ccccc1
4 | C=C(CC[C@]12O[C@H](c3nnn[nH]3)[C@@](O)(C(=O)O)[C@](C(=O)O)(O1)[C@H](OC(=O)/C=C/[C@@H](C)C[C@@H](C)CC)[C@H]2O)[C@@H](C(C)=O)[C@H](C)Cc1ccccc1
